Source: US11739318B1, “Modified biosensors and biocatalysts and methods of use” (priority 2017, dated 2023)
pKi: −log10 of the molar value.

Assays:
PcaU1.2 = assay: Specificity evaluation of PcaU1.2 sensor against similar aromatic molecules; assay type: cell-based, P. putida; details: relative to PCA response
Protocol: For specificity evaluation of the biosensor, PcaU1.2 was tested against molecules with similar functional groups, namely benzoate, 4-hydroxybenzoate (4HB), and catechol. The tested molecules were relatively smaller than PCA, to eliminate any rejection of the molecule from the binding pocket due to steric hindrance.

PobR-DM [1] = assay: Whole cell biosensing of 4HB and benzoate with PobR-DM sensor plasmid; assay type: cell-based; details: P. putida with pPobR
Protocol: Whole cell biosensing of 4HB and benzoate: For 4HB sensing activity of the whole cell biosensor, a small scoop of pPobR transformed P. putida cells from a streaked plate or a glycerol stock was grown overnight as a seed culture. The overnight saturated seed culture was then diluted 100-fold in fresh growth medium, grown for 5-6 h at 30° C. to achieve an OD600 of ˜0.6, then distributed in deep 96-well blocks in a volume of 300-500 μL and induced with varying concentrations of 4HB or benzoate. The cultures were grown overnight (14-16 h) under vigorous shaking in a deep-well shaker (Taitec BioShakerM-BR-022UP). The cultures were diluted 100-fold in phosphate-buffered saline (PBS) with 1% sucrose and analyzed using an LSR II flow cytometer (BD Biosciences) or Accuri C6 flow cytometer (BD Biosciences) with standard settings for measurement of GFP fluorescence (ex 488 nm, em ˜530/30 nm). The arithmetic mean fluorescence value of ˜100,000 cells tightly gated based on forward and side scatter (FSC vs SSC) was used for a dose-response plot. Same protocol was followed for comparison of UbiC clones.

UbiC = UbiC (Escherichia coli, UniProt P26602); details: cited from earlier work
Sequence of UbiC (P26602 whole entry): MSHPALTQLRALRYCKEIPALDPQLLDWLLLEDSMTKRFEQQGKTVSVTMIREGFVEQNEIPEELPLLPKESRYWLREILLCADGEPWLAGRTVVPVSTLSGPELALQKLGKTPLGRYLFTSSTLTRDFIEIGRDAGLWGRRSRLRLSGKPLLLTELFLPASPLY

PobR-DM [2] = details: protocatechuate only at 1000-fold greater concentration than 4HB; cited from earlier work

| Structure (SMILES) | activation of the PcaU1.2 sensor (PcaU1.2) | response of the PobR-DM sensor in E. coli (PobR-DM [2]) | also measured |
| --- | --- | --- | --- |
| O=C(O)c1ccc(O)cc1 [4HB, 4-hydroxybenzoic acid] | Low but measurable activation | – | – |
| O=C(O)c1ccccc1 [benzoate] | Low but measurable activation | – | response of the whole cell 4HB biosensor (PobR-DM [1]): did not show any response; pKi (UbiC; inhibitor of UbiC): < 2.52; affinity weaker / Kp higher than 4HB (UbiC; product inhibition of UbiC): 1000 fold |
| Oc1ccccc1O [catechol] | a signal that was an appreciable fraction of PCA response | – | – |
| O=[N+]([O-])c1ccc(O)cc1 [p-nitrophenol] | – | does not respond | – |
| O=C(O)c1ccc(O)c(O)c1 [protocatechuate, 3,4-dihydroxybenzoate] | – | very weakly responds | – |
